Measured values as given in publication PMC12715805, “Screening apelin analogues and a small molecule agonist as effective cardiovascular therapeutics against reperfusion injury” (RSC Medicinal Chemistry, 2025).
One block for each compound: values may come before it. Where a SMILES comes first, the peptide text is derived from it. [ ]: non-standard residue; d: D form. The star is where a group is joined. Phe(4-Br) = N[C@@H](Cc1ccc(Br)cc1)C(=O)O; PEG6 = NCCOCCOCCOCCOCCOCCOCCC(=O)O; NMeL = CN[C@@H](CC(C)C)C(=O)O; Nle = CCCC[C@H](N)C(=O)O; Cbz = O=C(OCc1ccccc1)*; Aib = CC(C)(N)C(=O)O

Tests used:
apelinR / β-arrestin2 = molecular target: T1, apelinR / β-arrestin2 (Homo sapiens, UniProt P35414); experiment: ebBRET β-arrestin2 recruitment; type: cell-based; conditions: HEK293 cells transfected with apelinR, β-arrestin2-RlucII, rGFP-CAAX; 10 min at 37 °C; mean ± SEM of 5 to 6 independent experiments; read-out: β-arr2 recruitment log EC50 (converted)
T1 sequence (P35414 1-380): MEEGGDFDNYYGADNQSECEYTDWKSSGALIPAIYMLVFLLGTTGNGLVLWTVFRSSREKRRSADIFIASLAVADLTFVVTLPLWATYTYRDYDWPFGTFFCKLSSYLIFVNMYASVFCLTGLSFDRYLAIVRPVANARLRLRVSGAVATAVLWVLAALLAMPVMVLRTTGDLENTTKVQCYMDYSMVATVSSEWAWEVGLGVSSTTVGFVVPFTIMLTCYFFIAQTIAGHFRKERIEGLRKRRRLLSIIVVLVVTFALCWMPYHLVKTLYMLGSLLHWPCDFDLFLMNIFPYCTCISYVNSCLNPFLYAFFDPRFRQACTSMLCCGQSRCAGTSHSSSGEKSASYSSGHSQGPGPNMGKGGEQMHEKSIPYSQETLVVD

[1] = cited from earlier work
Excerpt: The apelinergic system is a regulator in cardiovascular function and has shown positive effects on myocardial contractility, vasodilation,[4,5] angiogenesis[6] and heart rate.[7] Apelin promotes vasodilation by stimulating nitric oxide (NO) production, with apelin potentiating phosphorylation of Akt and eNOS,[5,8] while its signalling through Akt and ERK pathways also helps regulate cardiac contractility and provides protection against cardiac hypertrophy.[9] Apelin peptide hormones are derived from a 77-residue pre-propeptide and exist as three major isoforms, differentiated by their length, ...

apelinR / β-arrestin1 = molecular target: T2, apelinR / β-arrestin1 (Homo sapiens, UniProt P35414); experiment: ebBRET β-arrestin1 recruitment; type: cell-based; conditions: HEK293 cells transfected with apelinR, β-arrestin1-RlucII, rGFP-CAAX; 10 min at 37 °C; mean ± SEM of 5 to 6 independent experiments; read-out: β-arr1 recruitment log EC50 (converted)
T2 sequence (P35414 1-380): T1 sequence (P35414 1-380)

apelinR / human Gαi2 = molecular target: T3, apelinR / human Gαi2 (Homo sapiens, UniProt P35414); experiment: ebBRET Gαi2 activation; type: cell-based; conditions: HEK293 cells transfected with apelinR, human Gαi2, Rap1GAP-RlucII, rGFP-CAAX; 10 min at 37 °C; mean ± SEM of 5 to 6 independent experiments; read-out: Gαi2 activation log EC50 (converted)
T3 sequence (P35414 1-380): T1 sequence (P35414 1-380)

apelinR / human Gαi1 = molecular target: T4, apelinR / human Gαi1 (Homo sapiens, UniProt P35414); experiment: ebBRET Gαi1 activation; type: cell-based; conditions: HEK293 cells transfected with apelinR, human Gαi1, Rap1GAP-RlucII, rGFP-CAAX; 10 min at 37 °C; mean ± SEM of 5 to 6 independent experiments; read-out: Gαi1 activation log EC50 (converted)
T4 sequence (P35414 1-380): T1 sequence (P35414 1-380)

[2] = system: isolated mouse heart (ischemia–reperfusion injury); experiment: Ex vivo Langendorff heart perfusion with ischemia–reperfusion; conditions: for cardioprotective effect / cardiac function recovery after ischemia–reperfusion (LVDP, RPP, max dP/dt, min dP/dt; in words): 1 μM in perfusion buffer for first 10 min of reperfusion after 30 min ischemia, compared to placebo, one-way ANOVA, Dunnett
phospho-Akt (Ser473) = experiment: Western blot of Akt phosphorylation in left ventricular tissue after Langendorff ischemia–reperfusion; set-up: species or system mouse; conditions: n = 6 per group
Experimental: (§1) Fig. 4 Phosphorylation of Akt and ERK1/2 in left ventricular tissue following ischemia–reperfusion (IR) and treatment with apelin analogues. Protein lysates were analyzed by Western blotting and band intensities quantified by densitometry. (A) Representative Western blots for phosphorylated Akt (p-Akt, Ser473), total Akt, phosphorylated ERK1/2 (p-ERK1/2, Thr202/Tyr204), and total ERK1/2. (B) Quantification of p-Akt/Akt. (C) Quantification of p-ERK1/2/ERK1/2. Data are expressed in arbitrary units relative to aerobic perfusion (control) and presented as mean ± SEM (n = 6 per group). Statistical analysis was performed using one-way ANOVA with Tukey's multiple comparisons test. Symbol key: *p < 0.05 vs. aerobic perfusion; **p < 0.05 vs. aerobic perfusion and placebo; ***p < 0.05 vs. all other groups.
(§2) Protein expression was assessed by Western blot analysis. Left ventricular tissue samples from mice in the Langendorff protocol were homogenized in RIPA buffer supplemented with protease and phosphatase inhibitors (Thermo Fisher Scientific, Waltham, MA, USA). Lysates were cleared by centrifugation at 12 000 × g for 15 min at 4 °C, and protein concentration was determined by the BCA assay (Pierce, Thermo Fisher Scientific, Waltham, MA, USA). Equal amounts of protein (20 μg per lane) were separated on 10% SDS-polyacrylamide gels and transferred to polyvinylidene difluoride (PVDF) membranes (Immobilon-P, MilliporeSigma, Burlington, MA, USA). Membranes were blocked for 1 h at room temperature in 5% bovine serum albumin (BSA) prepared in Tris-buffered saline with 0.1% Tween-20 (TBST) and incubated overnight at 4 °C with the following primary antibodies (all from Cell Signaling Technology, Danvers, MA, USA): phospho-Akt (Ser473; #4060), total Akt (#2920), phospho-ERK1/2 (Thr202/Tyr204; #9101), and total ERK1/2 (#4696), each diluted 1 : 1000 in blocking buffer. […] Band intensities were quantified using ImageJ software (National Institutes of Health, Bethesda, MD, USA), and phosphorylated protein levels were normalized to their corresponding total protein.

[3] = system: phospho-ERK1/2 (Thr202/Tyr204); experiment: Western blot of ERK1/2 phosphorylation in left ventricular tissue after Langendorff ischemia–reperfusion; set-up: species or system mouse; conditions: n = 6 per group
Experimental: as §1, §2

[4] = system: wild-type male mice (C57BL/6); experiment: Blood pressure lowering assay in anesthetized mice; type: in vivo, mouse; conditions: for hypotensive effect (BP lowering activity, in words): 0.5 μmol kg^−1 infusion during 5 min via jugular vein, anesthetized wild-type male C57BL/6 mice, compared to vehicle control
Experimental: The metabolically stable apelin analogues from each isoform, CbzPEG6–NMeLeu17A2 and NMeLeu13A2 along with the small molecule agonist, BMS-986224 (0.5 μmol kg^−1 infusion during 5 min for each compound), were tested for their BP lowering activity in anesthetized wild-type male mice (C57BL/6, 24–30 g). […] In contrast, the hypotensive effect of CbzPEG6–NMeLeu17A2 was observed immediately after infusion. This analogue reduced mean arterial pressure (MAP) by approximately 50% during the experiment, with the effect sustained for more than 30 minutes post-administration. Apelin can act on the endothelial layer of vasculature, leading to systemic changes in blood pressure by increasing the synthesis of nitric oxide (NO).[5] The effect of CbzPEG6–NMeLeu17A2 on […], which decreases the […] resistance by increasing eNOS activation and NO production through the activation of the PI3K/Akt signalling pathway on endothelial cells like other apelin analogues we tested in the previous studies.[5,11]
The blood pressure measurement and apelin injection method has been described in our previous research.[43] During the blood pressure testing, mice aged 12–14 weeks were anesthetized with 1.5% isoflurane in oxygen and monitored throughout the experiment. The blood pressure was measured using a PV loop catheter (model 1.2F, Transonic) […] into the left carotid artery. The monitor system (LabScribe 2.0. Scisense) recorded aortic blood pressure and heart rate. After a 20-minute baseline measurement, CbzPEG6–NMeLeu17A2, NMeLeu13A2, RI13, RI13A2, RI17, RI17A2, and BMS-986224 (0.5 μmol […] body weight) were diluted in saline and consistently infused for 5 min via the right jugular vein. For BMS-986224, 0.1% DMSO was added to saline to help with dilution. Blood pressure was continuously recorded for 60 minutes post-infusion.
3. Effects of APJ agonists on blood pressure
Figure S3. Different effects of apelin analog and receptor agonist on blood pressure and ischemia-reperfusion injury. A) the effect of CbzPEG6–NMeLeu17A2 (n=3) on mean arterial blood pressure (MAP), B) the effect of apelin 13 analog, NMeLeu13A2, on MAP (n=4). The effect of apelin 13 analog reverse enantiomers, C) RI13 (n=4) and D) RI13A2 (n=4), on MAP. The effect of apelin 17 reverse enantiomers, E) RI17 (n=4) and F) RI17A2 (n=4) on MAP. G) The effect of small molecule apelin receptor agonist BMS-986224 on blood pressure (n=4). The MAP recording between 50 and 60 minutes has been averaged and compared with their controls (placebo (n=4)). The vehicle for BMS-986224 is 0.1% DMSO (n=3). The arrow indicates the time when analogs were introduced. Values mean ±SEM and ****P<0.0001, compared to the control group.
(1 picture or pasted object on this page, not shown here)

apelinR = molecular target: apelinR; set-up: method as in PMID 33663236; conditions: cited from earlier work
rats = conditions: cited from earlier work
Excerpt: Another avenue being investigated is the use of small molecule as agonists for the apelinR, such as, Bristol Myers Squibb's BMS-986224,[26,27] Amgen's AMG986,[28] and Davenport's CMF-019.[29] […] In contrast, the two non peptidic apelinR agonists, BMS-98622 ...

human apelinR = molecular target: T5, human apelinR (Homo sapiens, UniProt P35414); experiment: ApelinR radioligand binding experiment (competition with [125I]-(Nle11,Tyr13) apelin-13); conditions: Fig. 1; membranes of CHO cells stably expressing hApelinR; 0.2 nM [125I]-(Nle11,Tyr13) apelin-13; 3 h at 20 °C; n = 4 to 6 independent experiments in duplicate; read-out: Binding affinity IC50 ± SEM
T5 construct: expressed in transfected cells; crude membrane preparations
T5 sequence (P35414 1-380): T1 sequence (P35414 1-380)

EC50 (apelinR / β-arrestin2): 1.15 nM | EC50 (apelinR / β-arrestin1): 1.23 nM | EC50 (apelinR / human Gαi2): 0.0219 nM | EC50 (apelinR / human Gαi1): 0.0339 nM
SMILES: CCCC[C@H](NC(=O)[C@@H]1CCCN1C(=O)CNC(=O)[C@H](CCCCN)NC(=O)[C@H](Cc1c[nH]cn1)NC(=O)[C@H](CO)NC(=O)[C@H](CC(C)C)N(C)C(=O)[C@H](CCCNC(=N)N)NC(=O)[C@@H]1CCCN1C(=O)[C@H](CCCNC(=N)N)NC(=O)[C@@H]1CCC(=O)N1)C(=O)NC(C)(C)C(=O)N[C@@H](Cc1ccc(Br)cc1)C(=O)O [NMeLeu13A2]
half-life in human plasma [1]: ~4 h

SMILES: CCCC[C@H](NC(=O)[C@@H]1CCCN1C(=O)CNC(=O)[C@H](CCCCN)NC(=O)[C@H](Cc1c[nH]cn1)NC(=O)[C@H](CO)NC(=O)[C@H](CC(C)C)N(C)C(=O)[C@H](CCCNC(=N)N)NC(=O)[C@@H]1CCCN1C(=O)[C@H](CCCNC(=N)N)NC(=O)[C@H](CCC(N)=O)NC(=O)[C@H](CCCNC(=N)N)NC(=O)[C@H](CCCNC(=N)N)NC(=O)[C@H](Cc1ccccc1)NC(=O)[C@H](CCCCN)NC(=O)CCOCCOCCOCCOCCOCCOCCNC(=O)OCc1ccccc1)C(=O)NC(C)(C)C(=O)N[C@@H](Cc1ccc(Br)cc1)C(=O)O [CbzPEG6–NMeLeu17A2] ({Cbz-PEG6}-KFRRQRPR[NMeL]SHKGP[Nle][Aib][Phe(4-Br)]-OH; C-terminus assumed)
cardioprotective effect / cardiac function recovery after ischemia–reperfusion (LVDP, RPP, max dP/dt, min dP/dt; in words) [2]: significant cardioprotective effect and positive inotropic effect | cardiac recovery compared to the placebo treatment (left ventricle contractility, diastolic and systolic function) ([2]; 1 μM, 30 min ischemia, 40 min reperfusion, n = 7): nearly doubled | Akt phosphorylation (p-Akt/Akt), mean difference relative to control (phospho-Akt (Ser473); left ventricular tissue after IR and 1 μM treatment, arbitrary units relative to aerobic perfusion (control), both p < 0.0001): −8.857 | Akt phosphorylation (p-Akt/Akt), mean difference versus NMeLeu13A2 (phospho-Akt (Ser473); left ventricular tissue after IR, arbitrary units, p < 0.001): −4.018 | Akt phosphorylation compared with IR (in words) (phospho-Akt (Ser473); left ventricular tissue after IR, one-way ANOVA, Tukey): robust enhancement | t1/2 in human plasma [1]: > 18 h | ERK1/2 phosphorylation (p-ERK1/2/ERK1/2), mean difference versus NMeLeu13A2 ([3]; left ventricular tissue after IR, arbitrary units, p < 0.0001): −1.991 | ERK1/2 phosphorylation compared with control (in words) ([3]; left ventricular tissue after IR, p < 0.01 (NMeLeu13A2), p < 0.0001 (CbzPEG6–NMeLeu17A2)): significantly increased ERK1/2 phosphorylation | ERK1/2 activation relative to IR (in words) ([3]; p < 0.0001): significant increase in ERK1/2 activation | duration of hypotensive effect post-administration ([4]; 0.5 μmol kg^−1 infusion during 5 min, anesthetized C57BL/6 mice): more than 30 minutes | reduction of mean arterial pressure (MAP) ([4]; 0.5 μmol kg^−1 infusion during 5 min, anesthetized C57BL/6 mice, n = 3): approximately 50% | hypotensive effect (BP lowering activity, in words) [4]: significant hypotensive effect

EC50 (apelinR / β-arrestin2): 8.91 nM | EC50 (apelinR / β-arrestin1): 10.7 nM | EC50 (apelinR / human Gαi2): 0.11 nM | EC50 (apelinR / human Gαi1): 0.102 nM | IC50 (human apelinR): 16.4 ± 5.42 nM
SMILES: CCOCc1nc(O)c(-c2nnc(Cc3ccc(Cl)cn3)o2)c(O)c1-c1c(OC)cccc1OC [BMS-986224, reference compound]
cardioprotective effect / cardiac function recovery after ischemia–reperfusion (LVDP, RPP, max dP/dt, min dP/dt; in words) [2]: failed to show significance in cardiac function recovery | Kd (apelinR): 0.3 nM | change in BP in a myocardial infarction (MI) rat model and a hypertension-induced cardiac dysfunction rat model (in words) (rats; MI rat model, hypertension-induced cardiac dysfunction rat model): do not induce any change in BP | BP in anesthetized normotensive rats (in words) (rats; anesthetized normotensive rats, at the beginning of the infusion): slight but significant decrease in BP | cardiac effects and blood pressure in a rat pressure–volume loop model (in words) (rats; rat pressure–volume loop model): positive cardiac effects without significantly lowering blood pressure | hypotensive effect (BP lowering activity, in words) [4]: no hypotensive effect
